Reference: US20100086958A1, “NOVEL ENZYME” (priority 2008, published 2010)

Key:
Bsp184FDH = assay: Inhibition studies of Bsp184FDH-catalysed formate oxidation; assay type: biochemical, Burkholderia cenocepacia PC184
Method: (§1) Inhibition of formate oxidation by Bsp383FDH or Bsp184FDH was performed in the presence of the following potential inhibitors: NaN3, NaNO2, KNO3, KNO2, KCN and iodoacetamide at 5 mM and 20 mM concentrations. In a typical procedure, 10 μL of enzyme, Bsp383FDH (0.022 mg/mL) or Bsp184FDH (0.020 mg/mL) was incubated in sodium phosphate buffer (50 mM, pH 7.0) containing 100 mM of formate (sodium formate) and 5 mM and 20 mM inhibitors concentrations for 5 minutes at room temperature. Reaction of formate oxidation was then initiated by addition of NADP in 5 mM final concentration. Absorbance at 340 nm due to NADPH formation was spectrophotometrically monitored using a microtiter plate reader. Absorbance was recorded at 10 seconds intervals for 10 minutes. Initial activities were then calculated using the linear part of the initial readings using at least 20 data points and used directly as relative activity values. Control experiments were also performed in the absence of the enzyme.

Bsp383FDH = assay: Inhibition studies of Bsp383FDH-catalysed formate oxidation; assay type: biochemical, Burkholderia sp. 383
Method: as §1

`O=C[O-].[Na+]` [Formate salt] was tested, and the “inhibition of BcenFDH1” value (Bsp184FDH) was “does not inhibit” and the “inhibition of BspFDH2” value (Bsp383FDH) was “does not inhibit”.
